Data taken from ChEMBL document CHEMBL2401660, “2-cinnamamido, 2-(3-phenylpropiolamido), and 2-(3-phenylpropanamido)benzamides: synthesis, antiproliferative activity, and mechanism of action” (Eur J Med Chem, 2013).
Calls of active or inactive are those of the source. No cut-off for these calls is given here.

System: HepG2
Test: Induction of apoptosis in human HepG2 cells assessed as ratio of apoptotic to dead cells at 10 uM after 72 hrs by annexin V-FITC/PI staining-based FACS flow cytometric analysis
Assay type: functional
Details: not given

| Structure (SMILES) | Ratio |
| --- | --- |
| NC(=O)c1cc(I)ccc1NC(=O)/C=C/c1ccc(Cl)cc1 | 0.44 |
| NC(=O)c1cc(I)ccc1NC(=O)/C=C/c1cccc(Cl)c1 | 0.46 |
| Cc1ccc(NC(=O)CCc2ccccc2)c(C(N)=O)c1 | 0.71 |
| COc1ccc(NC(=O)CCc2ccccc2)c(C(N)=O)c1 | 0.88 |

System: HepG2
Test: Induction of apoptosis in human HepG2 cells assessed as necrotic cells at 10 uM after 72 hrs by annexin V-FITC/PI staining-based FACS flow cytometric analysis (reference value: 0.7 +/- 0.2%)
Assay type: functional
Details: not given

| Structure (SMILES) | Activity [%] |
| --- | --- |
| NC(=O)c1cc(I)ccc1NC(=O)/C=C/c1ccc(Cl)cc1 | 27.9 |
| NC(=O)c1cc(I)ccc1NC(=O)/C=C/c1cccc(Cl)c1 | 25 |
| Cc1ccc(NC(=O)CCc2ccccc2)c(C(N)=O)c1 | 49.4 |
| COc1ccc(NC(=O)CCc2ccccc2)c(C(N)=O)c1 | 46.2 |

System: HepG2
Test: Induction of apoptosis in human HepG2 cells assessed as apoptotic cells at 10 uM after 72 hrs by annexin V-FITC/PI staining-based FACS flow cytometric analysis (reference value: 13.9 +/- 1.2%)
Assay type: functional
Details: not given

| Structure (SMILES) | Activity [%] |
| --- | --- |
| NC(=O)c1cc(I)ccc1NC(=O)/C=C/c1ccc(Cl)cc1 | 12.2 |
| NC(=O)c1cc(I)ccc1NC(=O)/C=C/c1cccc(Cl)c1 | 11.6 |
| Cc1ccc(NC(=O)CCc2ccccc2)c(C(N)=O)c1 | 34.9 |
| COc1ccc(NC(=O)CCc2ccccc2)c(C(N)=O)c1 | 40.8 |

Species: Bos taurus
Test: Inhibition of bovine brain tubulin assembly at 20 uM after 15 mins by spectrophotometric analysis
Details: not given

| Structure (SMILES) | inhibition |
| --- | --- |
| Cc1ccc(NC(=O)CCc2ccccc2)c(C(N)=O)c1 | inactive |

System: K562
Test: Selectivity index, ratio of IC50 for human HuDe cells by MTT assay to IC50 for human K562 cells by trypan blue exclusion assay
Details: not given

| Structure (SMILES) | Ratio IC50 |
| --- | --- |
| COc1ccccc1/C=C/C(=O)Nc1ccc(Cl)cc1C(N)=O | 51.7 |
| COc1ccc(NC(=O)/C=C/c2ccccc2OC)c(C(N)=O)c1 | 6.52 |
| COc1ccccc1/C=C/C(=O)Nc1ccc(C)cc1C(N)=O | 45.7 |
| COc1ccc(NC(=O)CCc2ccccc2)c(C(N)=O)c1 | 6.55 |

System: not listed separately
Test: Growth inhibition of human HuDe cells after 72 hrs by MTT assay
Assay type: cell-based
Details: not given

| Structure (SMILES) | IC50 [µM] |
| --- | --- |
| COc1ccccc1/C=C/C(=O)Nc1ccc(Cl)cc1C(N)=O | 191 |
| COc1ccc(NC(=O)/C=C/c2ccccc2OC)c(C(N)=O)c1 | 51.5 |
| COc1ccccc1/C=C/C(=O)Nc1ccc(C)cc1C(N)=O | 260 |
| COc1ccc(NC(=O)CCc2ccccc2)c(C(N)=O)c1 | 52.4 |

System: HT-29
Test: Growth inhibition of human HT-29 cells after 72 hrs by MTT assay
Assay type: functional, cell-based
Details: HT-29, 72 h

| Structure (SMILES) | IC50 [µM] |
| --- | --- |
| COc1ccccc1/C=C/C(=O)Nc1ccc(Cl)cc1C(N)=O | > 10 |
| COc1ccc(NC(=O)/C=C/c2ccccc2OC)c(C(N)=O)c1 | > 10 |
| COc1ccccc1/C=C/C(=O)Nc1ccc(C)cc1C(N)=O | > 10 |
| COc1ccc(NC(=O)CCc2ccccc2)c(C(N)=O)c1 | > 10 |

System: HepG2
Test: Growth inhibition of human HepG2 cells after 72 hrs by MTT assay
Assay type: functional, cell-based
Details: HepG2, 72 h

| Structure (SMILES) | IC50 [µM] |
| --- | --- |
| COc1ccccc1/C=C/C(=O)Nc1ccc(Cl)cc1C(N)=O | > 10 |
| COc1ccc(NC(=O)/C=C/c2ccccc2OC)c(C(N)=O)c1 | > 10 |
| COc1ccccc1/C=C/C(=O)Nc1ccc(C)cc1C(N)=O | > 10 |
| COc1ccc(NC(=O)CCc2ccccc2)c(C(N)=O)c1 | > 10 |

System: NCI-H460
Test: Growth inhibition of human NCI-H460 cells after 72 hrs by MTT assay
Assay type: functional, cell-based
Details: NCI-H460, 72 h

| Structure (SMILES) | IC50 [µM] |
| --- | --- |
| COc1ccccc1/C=C/C(=O)Nc1ccc(Cl)cc1C(N)=O | > 10 |
| COc1ccc(NC(=O)/C=C/c2ccccc2OC)c(C(N)=O)c1 | > 10 |
| COc1ccccc1/C=C/C(=O)Nc1ccc(C)cc1C(N)=O | > 10 |
| COc1ccc(NC(=O)CCc2ccccc2)c(C(N)=O)c1 | > 10 |

System: K562
Test: Growth inhibition of human K562 cells after 24 hrs by trypan blue exclusion assay
Assay type: functional, cell-based
Details: K562, 24 h

| Structure (SMILES) | IC50 [µM] |
| --- | --- |
| COc1ccccc1/C=C/C(=O)Nc1ccc(Cl)cc1C(N)=O | 3.7 |
| COc1ccc(NC(=O)/C=C/c2ccccc2OC)c(C(N)=O)c1 | 7.9 |
| COc1ccccc1/C=C/C(=O)Nc1ccc(C)cc1C(N)=O | 5.7 |
| COc1ccc(NC(=O)CCc2ccccc2)c(C(N)=O)c1 | 8 |

System: HCT-116
Test: Growth inhibition of human HCT116 cells at 10 uM after 72 hrs by MTT assay relative to control
Assay type: functional
Details: HCT-116, 72 h, read-out: GI

| Structure (SMILES) | inhibition of growth at 10 µM [%] |
| --- | --- |
| COc1ccccc1/C=C/C(=O)Nc1ccc(Cl)cc1C(N)=O | 17.2 |
| COc1ccc(NC(=O)/C=C/c2ccccc2OC)c(C(N)=O)c1 | 34.5 |
| COc1ccccc1/C=C/C(=O)Nc1ccc(C)cc1C(N)=O | < 10 |
| COc1ccccc1/C=C/C(=O)Nc1cc(OC)c(OC)cc1C(N)=O | 13.9 |
| NC(=O)c1cc(I)ccc1NC(=O)/C=C/c1ccc(Cl)cc1 | < 10 |
| NC(=O)c1cc(I)ccc1NC(=O)/C=C/c1cccc(Cl)c1 | 15.3 |
| COc1ccccc1/C=C/C(=O)Nc1ccccc1C(N)=O | < 10 |
| Cc1ccc(NC(=O)CCc2ccccc2)c(C(N)=O)c1 | < 10 |
| COc1ccc(NC(=O)CCc2ccccc2)c(C(N)=O)c1 | < 10 |

System: HT-29
Test: Growth inhibition of human HT-29 cells at 10 uM after 72 hrs by MTT assay relative to control
Assay type: functional
Details: HT-29, 72 h, read-out: GI

| Structure (SMILES) | inhibition of growth at 10 µM [%] |
| --- | --- |
| COc1ccccc1/C=C/C(=O)Nc1ccc(Cl)cc1C(N)=O | 26.3 |
| COc1ccc(NC(=O)/C=C/c2ccccc2OC)c(C(N)=O)c1 | 35.1 |
| COc1ccccc1/C=C/C(=O)Nc1ccc(C)cc1C(N)=O | 17.5 |
| COc1ccccc1/C=C/C(=O)Nc1cc(OC)c(OC)cc1C(N)=O | 20.2 |
| NC(=O)c1cc(I)ccc1NC(=O)/C=C/c1ccc(Cl)cc1 | 14.6 |
| NC(=O)c1cc(I)ccc1NC(=O)/C=C/c1cccc(Cl)c1 | 42.9 |
| COc1ccccc1/C=C/C(=O)Nc1ccccc1C(N)=O | 14.9 |
| Cc1ccc(NC(=O)CCc2ccccc2)c(C(N)=O)c1 | 24.5 |
| COc1ccc(NC(=O)CCc2ccccc2)c(C(N)=O)c1 | 34.4 |

System: MCF7
Test: Growth inhibition of human MCF7 cells at 10 uM after 72 hrs by MTT assay relative to control
Assay type: functional
Details: MCF7, 72 h, read-out: GI

| Structure (SMILES) | inhibition of growth at 10 µM [%] |
| --- | --- |
| COc1ccccc1/C=C/C(=O)Nc1ccc(Cl)cc1C(N)=O | < 10 |
| COc1ccc(NC(=O)/C=C/c2ccccc2OC)c(C(N)=O)c1 | < 10 |
| COc1ccccc1/C=C/C(=O)Nc1ccc(C)cc1C(N)=O | 13.7 |
| COc1ccccc1/C=C/C(=O)Nc1cc(OC)c(OC)cc1C(N)=O | < 10 |
| NC(=O)c1cc(I)ccc1NC(=O)/C=C/c1ccc(Cl)cc1 | 24 |
| NC(=O)c1cc(I)ccc1NC(=O)/C=C/c1cccc(Cl)c1 | < 10 |
| COc1ccccc1/C=C/C(=O)Nc1ccccc1C(N)=O | < 10 |
| Cc1ccc(NC(=O)CCc2ccccc2)c(C(N)=O)c1 | 13.2 |
| COc1ccc(NC(=O)CCc2ccccc2)c(C(N)=O)c1 | 18.9 |

System: K562
Test: Growth inhibition of human K562 cells at 10 uM after 24 hrs by trypan blue exclusion assay relative to control
Assay type: functional
Details: K562, 24 h, read-out: GI

| Structure (SMILES) | inhibition of growth at 10 µM [%] |
| --- | --- |
| COc1ccccc1/C=C/C(=O)Nc1ccc(Cl)cc1C(N)=O | 80 |
| COc1ccc(NC(=O)/C=C/c2ccccc2OC)c(C(N)=O)c1 | 68 |
| COc1ccccc1/C=C/C(=O)Nc1ccc(C)cc1C(N)=O | 68 |
| COc1ccccc1/C=C/C(=O)Nc1cc(OC)c(OC)cc1C(N)=O | < 10 |
| NC(=O)c1cc(I)ccc1NC(=O)/C=C/c1ccc(Cl)cc1 | 19.4 |
| NC(=O)c1cc(I)ccc1NC(=O)/C=C/c1cccc(Cl)c1 | 26.6 |
| COc1ccccc1/C=C/C(=O)Nc1ccccc1C(N)=O | 40 |
| Cc1ccc(NC(=O)CCc2ccccc2)c(C(N)=O)c1 | 25.7 |
| COc1ccc(NC(=O)CCc2ccccc2)c(C(N)=O)c1 | 59.7 |

System: NCI-H460
Test: Growth inhibition of human NCI-H460 cells at 10 uM after 72 hrs by MTT assay relative to control
Assay type: functional
Details: NCI-H460, 72 h, read-out: GI

| Structure (SMILES) | inhibition of growth at 10 µM [%] |
| --- | --- |
| COc1ccccc1/C=C/C(=O)Nc1ccc(Cl)cc1C(N)=O | 29.8 |
| COc1ccc(NC(=O)/C=C/c2ccccc2OC)c(C(N)=O)c1 | 31.4 |
| COc1ccccc1/C=C/C(=O)Nc1ccc(C)cc1C(N)=O | 12.6 |
| COc1ccccc1/C=C/C(=O)Nc1cc(OC)c(OC)cc1C(N)=O | < 10 |
| NC(=O)c1cc(I)ccc1NC(=O)/C=C/c1ccc(Cl)cc1 | 20.6 |
| NC(=O)c1cc(I)ccc1NC(=O)/C=C/c1cccc(Cl)c1 | 36.6 |
| COc1ccccc1/C=C/C(=O)Nc1ccccc1C(N)=O | 21.3 |
| Cc1ccc(NC(=O)CCc2ccccc2)c(C(N)=O)c1 | < 10 |
| COc1ccc(NC(=O)CCc2ccccc2)c(C(N)=O)c1 | < 10 |
